Values quoted from earlier work in patent US20100047365A1, “WHEAT-GERM OIL CONCENTRATE, A METHOD FOR THE PRODUCTION THEREOF, A METHOD FOR PRODUCING WHEAT-GERM OIL, AND A MEDICINAL AND PROPHYLACTIC COMPOSITION BASED THEREON FOR RESTORATION OF DISORDERS IN SEXUAL FUNCTIONS” (OTKRYTOE AKTSIONERNOE, priority 2006, published 2010).

details: relative ranking of tocopherol forms

Molecule	antioxidant activity
Cc1cc(O)c(C)c2c1O[C@](C)(CCC[C@H](C)CCC[C@H](C)CCCC(C)C)CC2 [β-tocopherol]	0.45
tocopherol	0.6
Cc1cc(O)cc2c1O[C@](C)(CCC[C@H](C)CCC[C@H](C)CCCC(C)C)CC2 [δ-tocopherol]	1.0
Cc1c(C)c2c(c(C)c1O)CC[C@@](C)(CCC[C@H](C)CCC[C@H](C)CCCC(C)C)O2 [α-tocopherol]	0.3
